Where two headings read alike, the source gives them in different places. Blank lines part the entries; values can stand above or below the compound they belong to.
What was measured:
[1] = system: trabeculae from the right ventricular free wall of explanted human hearts; assay: Tension study: peak contractile force of isolated human right ventricular trabeculae in a muscle bath; conditions: 37° C., 1.0 Hz field stimulation, increasing concentrations
Experimental: Explanted human hearts were obtained from transplant recipients (n=7) and from nonfailing donor hearts (n=1). After excision, hearts were placed immediately into ice cold Tyrode's solution and aerated with 95% O2 and 5% CO2. Trabeculae between 1-3 mm in width and 7-10 mm in length were excised from the right ventricular free wall. Subsequently trabeculae were mounted in a multi-chamber muscle bath in oxygenated Tyrode's solution at 37° C. The trabeculae were placed under 1 gram of resting tension and a field stimulation of 1.0 Hz. […] Peak contractile forces were recorded at 10 minute intervals for a total of 1½ hours. Following experimentation, trabeculae were frozen in liquid N2.

[2] = biological target: T1, PDE-III isolated from human platelets (Homo sapiens, UniProt Q14432); assay: PDE-III inhibition assay, [3H]cAMP substrate, [3H]Adenosine quantified; format: biochemical; conditions: triplicate at three concentrations over log scale, semi-quantitative
T1 construct: PDE-III isolated from human platelets; from tissue; host or cells: human platelets
Experimental: Enoximone Sulfoxide enantiomer was tested for its ability to inhibit the action of PDE-III isolated from human platelets. The substrate was [^3H]cAMP+cAMP, which is converted by PDE-III to [^3H]Adenosine and then [^3H]Adenosine can be quantified.

[3] = cited from earlier work
[4] = oral, cited from earlier work
[5] = system: men who suffer from ED of psychogenic or organic etiology; conditions: clinical studies; cited from earlier work
PDE-III = conditions: cited from earlier work

T1 sequence (Q14432 whole entry): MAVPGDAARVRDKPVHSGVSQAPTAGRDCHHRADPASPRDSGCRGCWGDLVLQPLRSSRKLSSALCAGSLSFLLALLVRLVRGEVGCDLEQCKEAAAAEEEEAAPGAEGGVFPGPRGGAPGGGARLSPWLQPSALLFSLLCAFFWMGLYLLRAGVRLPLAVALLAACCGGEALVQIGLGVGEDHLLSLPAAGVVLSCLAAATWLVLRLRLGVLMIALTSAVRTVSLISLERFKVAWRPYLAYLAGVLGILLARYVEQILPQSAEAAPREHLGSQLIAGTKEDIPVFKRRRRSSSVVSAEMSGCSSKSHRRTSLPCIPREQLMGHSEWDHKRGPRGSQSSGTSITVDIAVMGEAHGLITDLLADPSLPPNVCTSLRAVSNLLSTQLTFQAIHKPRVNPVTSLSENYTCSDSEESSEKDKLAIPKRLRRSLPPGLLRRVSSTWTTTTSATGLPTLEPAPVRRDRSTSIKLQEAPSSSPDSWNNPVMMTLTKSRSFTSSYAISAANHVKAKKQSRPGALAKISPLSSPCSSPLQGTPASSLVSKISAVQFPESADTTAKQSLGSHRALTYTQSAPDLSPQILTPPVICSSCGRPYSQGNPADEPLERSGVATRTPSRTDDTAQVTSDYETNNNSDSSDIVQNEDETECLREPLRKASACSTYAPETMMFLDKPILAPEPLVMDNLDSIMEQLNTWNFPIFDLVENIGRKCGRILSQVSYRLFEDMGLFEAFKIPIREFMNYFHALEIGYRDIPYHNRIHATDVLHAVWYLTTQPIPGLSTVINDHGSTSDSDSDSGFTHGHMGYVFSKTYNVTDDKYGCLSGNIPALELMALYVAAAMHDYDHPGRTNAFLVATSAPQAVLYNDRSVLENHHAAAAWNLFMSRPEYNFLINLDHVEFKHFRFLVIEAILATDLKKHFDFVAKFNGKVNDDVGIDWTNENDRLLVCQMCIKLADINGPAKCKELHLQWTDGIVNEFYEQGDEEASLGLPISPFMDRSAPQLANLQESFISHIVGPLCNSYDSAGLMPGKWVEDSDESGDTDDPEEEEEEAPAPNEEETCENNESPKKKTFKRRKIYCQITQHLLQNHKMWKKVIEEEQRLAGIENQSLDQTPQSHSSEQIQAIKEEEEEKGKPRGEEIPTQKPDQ

IC50 [2]: 147 µM
Structure (SMILES): Cc1[nH]c(=O)[nH]c1C(=O)c1ccc([S@+](C)[O-])cc1 [(S)-(−)-enantiomer, 1,3-Dihydro-4-methyl-5-[(4-methylsulfinyl)-benzoyl]-2H-imidazol-2-one hydrate]
peak contractile force (net, T=0 value subtracted) [1]: 550 mg of tension

Structure (SMILES): CSc1ccc(C(=O)c2[nH]c(=O)[nH]c2C)cc1 [Enoximone, 1,3-Dihydro-4-methyl-5-[4-(methylthio)benzoyl]-2H-imidazol-2-one]
peak contractile force (net, T=0 value subtracted) [1]: 575 mg of tension | mean clearance ([3]; patients with cardiac failure): about 10 ml/min/kg | mean half-life ([3]; patients with cardiac failure): 6 h | Bioavailability ([3]; single oral dose of 3 mg/kg): about 55% | average steady-state plasma concentration ([4]; 50 mg every 8 hours): 115 ± 40 ng/mL | average steady-state plasma concentration ([4]; 100 mg every 8 hours): 190 ± 78 ng/mL

Structure (SMILES): Cc1[nH]c(=O)[nH]c1C(=O)c1ccc([S+](C)[O-])cc1.O (single isomer, unassigned) [(R)-(+)-enantiomer, 1,3-Dihydro-4-methyl-5-[(4-methylsulfinyl)-benzoyl]-2H-imidazol-2-one hydrate]
peak contractile force (net, T=0 value subtracted) [1]: 175 mg of tension

Structure (SMILES): CC(C)NCC(O)c1ccc(O)c(O)c1 (stereo not drawn) [Isoproterenol]
peak contractile force (net, T=0 value subtracted) [1]: > 1000 mg of tension

Structure (SMILES): CCCc1nn(C)c2c(=O)[nH]c(-c3cc(S(=O)(=O)N4CCN(C)CC4)ccc3OCC)nc12 [sildenafil, 5-[2-ethoxy-5-(4-methylpiperazin-1-ylsulphonyl)phenyl]-1-methyl-3-n-propyl-6,7-dihydro-1H-pyrazolo[4,3-d]pyrimidin-7-one]
men with improved sexual function [5]: about 70% | inhibition of PDE-III (PDE-III): negligible inhibition

— US20060025463A1, “Enoximone sulfoxide enantiomers and their use in the treatment of PDE-III mediated diseases” (priority 2004, published 2006)
